Measurements as given in paper PMC10290372, “Synthesis and tyrosinase inhibitory activities of novel isopropylquinazolinones” (BMC Chemistry, 2023).
Entries after “also recorded” stand apart in the source; their conditions may differ. Like-named read-outs stand apart in the source and are kept apart here.

Experiments:
[1] = system: B16F10 cell line; set-up: method as in PMID 33640246; conditions: cited from earlier work
[2] = biological target: tyrosinase; conditions: cited from earlier work; for IC50: tyrosinase
[3] = system: B16F10 cell line; set-up: method as in PMID 33640246; conditions: cited from earlier work; remark: listed apart in the source
[4] = biological target: T1, mushroom tyrosinase (Agaricus bisporus, UniProt C7FF04); assay: Screening of mushroom tyrosinase inhibitory activity (oxidation of L-dopa); format: biochemical; conditions: L-dopa substrate, mean ± S.E; for inhibition at 50 µM: 50 µM compound
T1 construct: purchased Sigma-Aldrich, St Louis, MO, USA
T1 sequence (C7FF04 1-392 limits assumed): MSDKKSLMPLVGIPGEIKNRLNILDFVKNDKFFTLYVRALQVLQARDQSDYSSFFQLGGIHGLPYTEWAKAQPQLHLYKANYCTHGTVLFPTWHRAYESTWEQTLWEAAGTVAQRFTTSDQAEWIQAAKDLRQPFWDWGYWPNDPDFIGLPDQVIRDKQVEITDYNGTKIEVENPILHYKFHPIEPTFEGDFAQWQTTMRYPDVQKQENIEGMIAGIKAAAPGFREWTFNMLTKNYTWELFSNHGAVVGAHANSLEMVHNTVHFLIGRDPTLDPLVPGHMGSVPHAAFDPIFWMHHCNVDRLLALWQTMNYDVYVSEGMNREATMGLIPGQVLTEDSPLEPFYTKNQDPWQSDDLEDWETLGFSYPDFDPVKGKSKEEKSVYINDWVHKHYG
Description: All newly synthesized compounds (9a–q) were examined for their inhibitory potentials against the tyrosinase enzyme and the results were presented in Table 1 and the structure–activity relationships (SARs) were constructed. […].
Tyrosinase inhibitory activity was determined based on the previously described procedure with a slight modification. In brief, the test reaction mixture comprised 10 µL of each derivative, and 10 µL of mushroom tyrosinase (500 units; Sigma-Aldrich, St Louis, MO, USA) in 160 potassium phosphate buffer (pH = 6.8). The reaction mixture was incubated at 37 °C for 20 min and then 20 µL of L-Dopa (0.5 mmol/L) was added to each well, and the absorption was measured at 475 nm. The absorbance of the same mixture without tyrosinase was used as the control. Kojic acid was used as a positive control. The optical density of the inhibition in the control was considered to represent 100%. The data are expressed as mean percentages and the results were repeated in triplicate.

[5] = DPPH radical scavenging assay (antioxidant activity); conditions: for % Inhibition at 100 µM: 100 µM compound, mean ± S.E of three independent experiments; for antioxidant capacity: result in words; for IC50: NA means not active, read-out: IC50 (µM) ± RSD
Description: In vitro antioxidant activities of the synthesized compounds were determined quantitatively using DPPH radical scavenging assay. DPPH is a stable free radical at room temperature and accepts an electron or hydrogen radical from an antioxidant to become a stable diamagnetic molecule. […] Similar to previous studies, halogens especially fluorine, increases antioxidant activity.
The DPPH antioxidant potencies of all derivatives were performed according to previously published articles.

[6] = biological target: tyrosinase (Agaricus bisporus, UniProt C7FF04); assay: Enzyme kinetic studies of tyrosinase inhibition (Lineweaver-Burk and secondary plots); format: biochemical, mushroom
tyrosinase (Agaricus bisporus, UniProt C7FF04), sequence (C7FF04 2-392): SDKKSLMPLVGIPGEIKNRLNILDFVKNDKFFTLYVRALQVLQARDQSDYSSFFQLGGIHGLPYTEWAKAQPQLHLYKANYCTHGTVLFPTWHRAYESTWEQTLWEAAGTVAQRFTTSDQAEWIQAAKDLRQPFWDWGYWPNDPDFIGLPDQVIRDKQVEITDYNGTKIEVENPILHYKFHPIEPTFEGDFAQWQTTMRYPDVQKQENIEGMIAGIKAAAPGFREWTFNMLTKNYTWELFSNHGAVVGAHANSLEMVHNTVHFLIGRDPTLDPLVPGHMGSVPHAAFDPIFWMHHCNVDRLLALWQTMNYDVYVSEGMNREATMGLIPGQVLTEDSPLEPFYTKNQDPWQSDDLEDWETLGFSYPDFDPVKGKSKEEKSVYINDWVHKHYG
Description: Fig. 2 Kinetics of tyrosinase inhibition by 9q. a The Lineweaver–Burk plot in the absence and presence of different concentrations of 9q; b The secondary plot of slopes of the lines vs various concentrations of 9q; c The secondary plot of 1/Vmax vs various concentrations of 9q
A Lineweaver–Burk plot was generated to identify the type of inhibition and the Michaelis–Menten constant (Km) value was determined from the plot between the reciprocal of the substrate concentration (1/[S]) and reciprocal of enzyme rate (1/V) over various inhibitor concentrations.

SMILES | melting point | inhibition at 50 µM [4] | % Inhibition at 100 µM [5] | other results
O=c1cc(CSc2nc3ccccc3c(=O)n2Cc2ccccn2)occ1O [C] |  |  |  | melanin content [1]: reduced the melanin content; IC50 [2]: 0.46 ± 0.9 µM; toxicity [3]: limited toxicity
CC(C)n1c(SCC(=O)Nc2ccccc2)nc2ccccc2c1=O [Compound 9a, 2-((3-Isopropyl-4-oxo-3,4-dihydroquinazolin-2-yl)thio)-N-phenylacetamide] | 190 to 192 °C | 21.6 ± 3.79% | 2.941 ± 1.76% | antioxidant capacity [5]: no antioxidant capacity
CC(C)n1c(SCC(=O)Nc2ccccc2Cl)nc2ccccc2c1=O [Compound 9b, N-(2-chlorophenyl)-2-((3-isopropyl-4-oxo-3,4-dihydroquinazolin-2-yl)thio)acetamide] | 207 to 209 °C | 38 ± 4.68% | 26.47 ± 2.48% | 
CC(C)n1c(SCC(=O)Nc2cccc(Cl)c2)nc2ccccc2c1=O [Compound 9c, N-(3-chlorophenyl)-2-((3-isopropyl-4-oxo-3,4-dihydroquinazolin-2-yl)thio)acetamide] | 203 to 205 °C | 27.8 ± 1.19% | 18.71 ± 5.39% | 
CC(C)n1c(SCC(=O)Nc2ccc(Cl)cc2)nc2ccccc2c1=O [Compound 9d, N-(4-chlorophenyl)-2-((3-isopropyl-4-oxo-3,4-dihydroquinazolin-2-yl)thio)acetamide] | 211 to 213 °C | 26.9 ± 4.67% | 42.78 ± 4.86% | 
CC(C)n1c(SCC(=O)Nc2ccc(Br)cc2)nc2ccccc2c1=O [Compound 9e, N-(4-bromophenyl)-2-((3-isopropyl-4-oxo-3,4-dihydroquinazolin-2-yl)thio)acetamide] | 203 to 205 °C | 24.8 ± 3.12% | 41.44 ± 3.85% | 
CC(C)n1c(SCC(=O)Nc2ccc([N+](=O)[O-])cc2)nc2ccccc2c1=O [Compound 9f, 2-((3-isopropyl-4-oxo-3,4-dihydroquinazolin-2-yl)thio)-N-(4-nitrophenyl)acetamide] | 216 to 218 °C | 32.7 ± 5.67% | 4.87 ± 1.65% | 
Cc1ccccc1NC(=O)CSc1nc2ccccc2c(=O)n1C(C)C [Compound 9g, 2-((3-isopropyl-4-oxo-3,4-dihydroquinazolin-2-yl)thio)-N-(o-tolyl)acetamide] | 196 to 198 °C | 34.6 ± 4.67% |  | 
Cc1ccc(NC(=O)CSc2nc3ccccc3c(=O)n2C(C)C)cc1 [Compound 9h, 2-((3-isopropyl-4-oxo-3,4-dihydroquinazolin-2-yl)thio)-N-(p-tolyl)acetamide] | 199 to 201 °C | 26.7 ± 6.42% | 29.41 ± 1.76% | 
COc1ccc(NC(=O)CSc2nc3ccccc3c(=O)n2C(C)C)cc1 [Compound 9i, 2-((3-isopropyl-4-oxo-3,4-dihydroquinazolin-2-yl)thio)-N-(4-methoxyphenyl)acetamide] | 205 to 207 °C | 25.4 ± 3.13% | 20.05 ± 3.47% | 
CC(C)n1c(SCC(=O)Nc2ccc(O)cc2)nc2ccccc2c1=O [Compound 9j, N-(4-hydroxyphenyl)-2-((3-isopropyl-4-oxo-3,4-dihydroquinazolin-2-yl)thio)acetamide] | 193 to 195 °C | 35.5 ± 4.91% | 40.83 ± 4.53% | 
CCc1ccc(NC(=O)CSc2nc3ccccc3c(=O)n2C(C)C)cc1 [Compound 9k, N-(4-ethylphenyl)-2-((3-isopropyl-4-oxo-3,4-dihydroquinazolin-2-yl)thio)acetamide] | 195 to 197 °C | 20.4 ± 4.19% | 10.16 ± 4.27% | 
Cc1cccc(NC(=O)CSc2nc3ccccc3c(=O)n2C(C)C)c1C [Compound 9l, N-(2,3-dimethylphenyl)-2-((3-isopropyl-4-oxo-3,4-dihydroquinazolin-2-yl)thio)acetamide] | 217 to 219 °C | 18.2 ± 5.52% | 5.08 ± 2.14% | 
Cc1ccc(NC(=O)CSc2nc3ccccc3c(=O)n2C(C)C)c(C)c1 [Compound 9m, N-(2,4-dimethylphenyl)-2-((3-isopropyl-4-oxo-3,4-dihydroquinazolin-2-yl)thio)acetamide] | 222 to 225 °C | 27.3 ± 3.43% | 21.12 ± 2.99% | 
Cc1cccc(C)c1NC(=O)CSc1nc2ccccc2c(=O)n1C(C)C [Compound 9n, N-(2,6-dimethylphenyl)-2-((3-isopropyl-4-oxo-3,4-dihydroquinazolin-2-yl)thio)acetamide] | 215 to 217 °C | 16.3 ± 6.57% | 44.38 ± 5.03% | 
CC(C)n1c(SCC(=O)Nc2ccc3ccccc3c2)nc2ccccc2c1=O [Compound 9o, 2-((3-isopropyl-4-oxo-3,4-dihydroquinazolin-2-yl)thio)-N-(naphthalen-2-yl)acetamide] | 217 to 219 °C | 35.2 ± 3.88% | 68.44 ± 4.84% | IC50 [5]: 38.8 µM
CC(C)n1c(SCC(=O)NCc2ccccc2)nc2ccccc2c1=O [Compound 9p, N-benzyl-2-((3-isopropyl-4-oxo-3,4-dihydroquinazolin-2-yl)thio)acetamide] | 194 to 196 °C | 29.1 ± 5.24% | 4.47 ± 2.35% | antioxidant capacity [5]: no antioxidant capacity
CC(C)n1c(SCC(=O)NCc2ccc(F)cc2)nc2ccccc2c1=O [Compound 9q, N-(4-fluorobenzyl)-2-((3-isopropyl-4-oxo-3,4-dihydroquinazolin-2-yl)thio)acetamide] |  | 54.5 ± 3.94% | 60.33 ± 5.53% | IC50 ([4]; NA means not active): 34.7 ± 3.68 µM; IC50 [5]: 40.7 µM; type of inhibition ([6]; Lineweaver-Burk plot, L-Dopa substrate, 9q at 10-50 µM): mix-type inhibition; also recorded: mix-type inhibitor; also recorded: mixed mode of inhibition; inhibition constant with the enzyme-substrate complex (KIS) ([6]; secondary plot of 1/Vmax vs inhibitor concentration): 87.32 µM
O=c1[nH]c(-c2ccc(F)cc2)nc2ccccc12 [Compound A, 2–4-fluorophenyl-quinazolin-4(3H)-one] |  |  |  | type of inhibition ([2]; kinetic studies): reversible and mixed-type inhibitor; IC50 ([2]; diphenolase activity): 120 ± 2 µM
CC(C)=CCC/C(C)=C/c1nc2ccccc2c(=O)[nH]1 [D] |  |  |  | type of inhibition [2]: mix type inhibition pattern; IC50 [2]: 103 ± 2 µM
CC(C)n1c(=S)[nH]c2ccccc2c1=O [E] |  |  |  | IC50 [2]: 15.5 ± 1.19 µM
CC(C)N1C(=O)c2ccccc2NC1SCc1ccccc1 (stereo not drawn) [F] |  |  |  | IC50 [2]: 71 ± 3.37 µM
O=c1c(O)c(-c2ccc(O)c(O)c2)oc2cc(O)cc(O)c12 [Quercetin, reference compound] |  |  |  | IC50 [5]: 18.6 µM
